Experimental data: patent publication US10034861B2 (priority 2016, dated 2018)
Read-outs that look alike come from different tables or passages of the source.

Columns and labels:
Type in all cases: biochemical
PDE1B = PDE1B (Homo sapiens (Human), UniProt Q01064); assay: PDE1 inhibition assay (PDE1B); details: 15 nM tritium labelled cAMP, 1 hr at room temperature, SPA beads
Description: (§1) Table 1 lists the IC50 value for inhibition of PDE1 by the compounds of the invention. […] PDE1 assays are described in the Experimental Section.

PDE1A = PDE1A (Homo sapiens (Human), UniProt P54750); assay: biochemical; details: 15 nM tritium labelled cAMP, 1 hr at room temperature, SPA beads
PDE1A, sequence (P54750 whole entry): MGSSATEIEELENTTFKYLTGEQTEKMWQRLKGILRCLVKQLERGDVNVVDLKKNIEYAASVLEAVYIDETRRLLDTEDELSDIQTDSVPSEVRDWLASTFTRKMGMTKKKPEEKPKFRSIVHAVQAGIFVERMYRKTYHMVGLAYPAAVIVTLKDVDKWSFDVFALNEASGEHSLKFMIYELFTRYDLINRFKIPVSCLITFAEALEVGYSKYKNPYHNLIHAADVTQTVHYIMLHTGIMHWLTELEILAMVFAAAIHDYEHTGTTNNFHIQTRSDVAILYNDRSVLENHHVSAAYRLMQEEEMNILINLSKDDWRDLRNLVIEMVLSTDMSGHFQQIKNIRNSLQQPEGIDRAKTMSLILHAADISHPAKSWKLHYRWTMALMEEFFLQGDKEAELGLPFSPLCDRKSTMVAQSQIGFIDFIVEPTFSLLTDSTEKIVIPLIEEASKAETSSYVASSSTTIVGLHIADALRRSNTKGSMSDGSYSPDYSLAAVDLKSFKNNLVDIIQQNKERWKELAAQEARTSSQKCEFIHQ
Description: as §1

PDE1C = PDE1C (Homo sapiens (Human), UniProt Q14123); assay: biochemical
PDE1C, sequence (Q14123 whole entry): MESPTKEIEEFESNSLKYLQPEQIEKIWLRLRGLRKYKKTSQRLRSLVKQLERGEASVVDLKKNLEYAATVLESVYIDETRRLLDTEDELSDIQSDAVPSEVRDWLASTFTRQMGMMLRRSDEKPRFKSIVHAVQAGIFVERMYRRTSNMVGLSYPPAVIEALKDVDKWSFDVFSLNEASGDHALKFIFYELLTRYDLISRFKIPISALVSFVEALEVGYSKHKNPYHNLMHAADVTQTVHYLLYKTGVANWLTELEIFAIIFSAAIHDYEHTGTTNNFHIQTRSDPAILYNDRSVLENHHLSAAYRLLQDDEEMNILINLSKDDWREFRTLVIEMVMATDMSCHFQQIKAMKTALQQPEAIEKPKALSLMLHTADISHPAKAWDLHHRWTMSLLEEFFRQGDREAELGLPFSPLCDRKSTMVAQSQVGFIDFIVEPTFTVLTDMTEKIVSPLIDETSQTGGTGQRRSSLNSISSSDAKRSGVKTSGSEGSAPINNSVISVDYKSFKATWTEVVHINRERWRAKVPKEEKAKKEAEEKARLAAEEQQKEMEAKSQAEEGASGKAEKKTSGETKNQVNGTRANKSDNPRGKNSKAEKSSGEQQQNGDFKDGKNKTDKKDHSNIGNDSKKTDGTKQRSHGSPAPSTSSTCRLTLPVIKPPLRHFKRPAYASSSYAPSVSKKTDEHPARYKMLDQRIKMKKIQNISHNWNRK
Description: as §1

[1] = 15 nM tritium labelled cAMP, 1 hr at room temperature, SPA beads

PDE1B, sequence (Q01064 whole entry): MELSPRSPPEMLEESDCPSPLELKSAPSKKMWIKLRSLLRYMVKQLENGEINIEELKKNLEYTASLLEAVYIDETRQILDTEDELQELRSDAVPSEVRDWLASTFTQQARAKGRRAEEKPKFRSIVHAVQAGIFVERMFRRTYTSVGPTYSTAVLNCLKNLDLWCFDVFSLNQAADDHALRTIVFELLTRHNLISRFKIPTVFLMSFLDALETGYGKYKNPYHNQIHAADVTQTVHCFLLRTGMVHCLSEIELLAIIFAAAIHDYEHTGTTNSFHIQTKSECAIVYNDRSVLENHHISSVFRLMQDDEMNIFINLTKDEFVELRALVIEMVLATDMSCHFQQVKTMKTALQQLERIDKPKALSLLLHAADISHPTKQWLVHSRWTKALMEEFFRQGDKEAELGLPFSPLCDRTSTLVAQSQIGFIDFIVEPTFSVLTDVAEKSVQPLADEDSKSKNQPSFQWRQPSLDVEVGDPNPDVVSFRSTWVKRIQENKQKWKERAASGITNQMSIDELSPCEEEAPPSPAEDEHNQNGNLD

CCOc1ncccc1-c1cc(NCc2nc(C)cs2)c2c(n1)c(C)nn2C(C)C [Example 29, 5-(2-ethoxypyridin-3-yl)-1-isopropyl-3-methyl-N-((4-methylthiazol-2-yl)methyl)-1H-pyrazolo[4,3-b]pyridin-7-amine]
IC50 (PDE1B; read-out: PDE1B, IC50): 1.1 nM

Cc1coc(-c2cc(NCc3cnn(C)c3)c3c(n2)c(C)nn3C(C)C)n1 [Example 202, 1-isopropyl-3-methyl-N-((1-methyl-1H-pyrazol-4-yl)methyl)-5-(4-methyloxazol-2-yl)-1H-pyrazolo[4,3-b]pyridin-7-amine]
IC50 (PDE1A): 92 nM | IC50 (PDE1C; [1]): 170 nM

COc1ncccc1CNc1cc(-c2cccnc2OC)nc2c(C)nn(C(C)C)c12 [Example 95, 1-isopropyl-5-(2-methoxy-3-pyridyl)-N-[(2-methoxy-3-pyridyl)methyl]-3-methyl-pyrazolo[4,3-b]pyridin-7-amine]
IC50 (PDE1A): 42 nM

CCOc1ncccc1-c1cc(NCc2nncn2C)c2c(n1)c(C)nn2C(C)C [Example 162, 5-(2-ethoxy-3-pyridyl)-1-isopropyl-3-methyl-N-[(4-methyl-1,2,4-triazol-3-yl)methyl]pyrazolo[4,3-b]pyridin-7-amine]
IC50 (PDE1A): 100 nM | IC50 (PDE1C; [1]): 180 nM

CCOc1ncccc1-c1cc(NCc2cnc(C)o2)c2c(n1)c(C)nn2C(C)CC (single isomer, unassigned) [Example 133, 5-(2-ethoxy-3-pyridyl)-3-methyl-N-[(2-methyloxazol-5-yl)methyl]-1-[1-methylpropyl]pyrazolo[4,3-b]pyridin-7-amine]
IC50 (PDE1B; PDE1B, IC50 (nM)): 1.3 nM

CCOc1ncccc1-c1cc(NCc2cnc(C)o2)c2c(n1)c(C)nn2C(C)C [Example 4, 5-(2-ethoxy-3-pyridyl)-1-isopropyl-3-methyl-N-[(2-methyloxazol-5-yl)methyl]pyrazolo[4,3-b]pyridin-7-amine]
IC50 (PDE1A): 8.6 nM | IC50 (PDE1C; [1]): 19 nM

CCOc1ncccc1-c1cc(NCc2cc[nH]n2)c2c(n1)c(C)nn2C(C)CC (single isomer, unassigned) [Example 120, 5-(2-ethoxy-3-pyridyl)-3-methyl-1-[1-methylpropyl]-N-(1H-pyrazol-3-ylmethyl)pyrazolo[4,3-b]pyridin-7-amine]
IC50 (PDE1C): 7.6 nM

Cc1nn(C(C)C)c2c(NCc3cccnc3C(F)(F)F)cc(-c3ccc[nH]c3=O)nc12 [Example 193, 3-[1-isopropyl-3-methyl-7-[[2-(trifluoromethyl)-3-pyridyl]methylamino]pyrazolo[4,3-b]pyridin-5-yl]-1H-pyridin-2-one]
IC50 (PDE1A): 320 nM | IC50 (PDE1C; [1]): 880 nM

CCOc1ncccc1-c1cc(NCc2cc(C)[nH]n2)c2c(n1)c(C)nn2C(C)CC (single isomer, unassigned) [Example 131, 5-(2-ethoxy-3-pyridyl)-3-methyl-1-[1-methylpropyl]-N-[(5-methyl-1H-pyrazol-3-yl)methyl]pyrazolo[4,3-b]pyridin-7-amine]
IC50 (PDE1B; PDE1B, IC50 (nM)): 0.042 nM

CCOc1ncccc1-c1cc(NCc2noc(C)n2)c2c(n1)c(C)nn2C(C)CC (single isomer, unassigned) [Example 128, 5-(2-ethoxy-3-pyridyl)-3-methyl-N-[(5-methyl-1,2,4-oxadiazol-3-yl)methyl]-1-[1-methylpropyl]pyrazolo[4,3-b]pyridin-7-amine]
IC50 (PDE1B; PDE1B, IC50 (nM)): 0.26 nM

CCOc1ncccc1-c1cc(NCc2cc(C)n(C)n2)c2c(cnn2C(C)C)n1 [Example 44, N-[(1,5-dimethylpyrazol-3-yl)methyl]-5-(2-ethoxy-3-pyridyl)-1-isopropyl-pyrazolo[4,3-b]pyridin-7-amine]
IC50 (PDE1A): 19 nM | IC50 (PDE1C; [1]): 70 nM

CCOc1ncccc1-c1cc(NCc2nnc(C)o2)c2c(cnn2C(C)CC)n1 (single isomer, unassigned) [Example 139, 5-(2-ethoxy-3-pyridyl)-N-[(5-methyl-1,3,4-oxadiazol-2-yl)methyl]-1-[1-methylpropyl]pyrazolo[4,3-b]pyridin-7-amine]
IC50 (PDE1A): 330 nM | IC50 (PDE1C): 530 nM

CCOc1ncccc1-c1cc(NCc2cn(C)cn2)c2c(n1)c(C)nn2C(C)CC (single isomer, unassigned) [Example 132, 5-(2-ethoxy-3-pyridyl)-3-methyl-N-[(1-methylimidazol-4-yl)methyl]-1-[1-methylpropyl]pyrazolo[4,3-b]pyridin-7-amine]
IC50 (PDE1B; PDE1B, IC50 (nM)): 0.045 nM

CCOc1ncccc1-c1cc(OCc2cnc(C)o2)c2c(n1)c(C)nn2C(C)C [Example 72, 5-[[5-(2-ethoxy-3-pyridyl)-1-isopropyl-3-methyl-pyrazolo[4,3-b]pyridin-7-yl]oxymethyl]-2-methyl-oxazole]
IC50 (PDE1A): 14 nM | IC50 (PDE1C; [1]): 39 nM

CCCOc1ncccc1-c1cc(NCc2cn[nH]c2)c2c(n1)c(C)nn2C(C)C [Example 196, 1-isopropyl-3-methyl-5-(2-propoxy-3-pyridyl)-N-(1H-pyrazol-4-ylmethyl)pyrazolo[4,3-b]pyridin-7-amine]
IC50 (PDE1A): 18 nM | IC50 (PDE1C; [1]): 27 nM

CCOc1ncccc1-c1cc(NCc2cc(CF)on2)c2c(n1)c(C)nn2C(C)C [Example 166, 5-(2-ethoxy-3-pyridyl)-N-[[5-(fluoromethyl)isoxazol-3-yl]methyl]-1-isopropyl-3-methyl-pyrazolo[4,3-b]pyridin-7-amine]
IC50 (PDE1B; read-out: PDE1B, IC50): 0.16 nM

CCOc1ncccc1-c1cc(NCc2ccc(=O)n(C)c2)c2c(n1)c(C)nn2C(C)C [Example 45]
IC50 (PDE1B; read-out: PDE1B, IC50): 0.62 nM

CCOc1ncccc1-c1cc(NCc2csc(C)n2)c2c(n1)c(C)nn2C(C)C [Example 11, 5-(2-ethoxy-3-pyridyl)-1-isopropyl-3-methyl-N-[(2-methylthiazol-4-yl)methyl]pyrazolo[4,3-b]pyridin-7-amine]
IC50 (PDE1A): 9.6 nM | IC50 (PDE1C; [1]): 30 nM

CCCOc1ncccc1-c1cc(NCc2cc[nH]n2)c2c(n1)c(C)nn2C(C)CC (single isomer, unassigned) [Example 135, 3-methyl-1-[1-methylpropyl]-5-(2-propoxy-3-pyridyl)-N-(1H-pyrazol-3-ylmethyl)pyrazolo[4,3-b]pyridin-7-amine]
IC50 (PDE1A): 1.9 nM | IC50 (PDE1C; [1]): 3.6 nM

CCOc1ncccc1-c1cc(NCc2ncccn2)c2c(n1)c(C)nn2C(C)C [Example 74, 5-(2-ethoxy-3-pyridyl)-1-isopropyl-3-methyl-N-(pyrimidin-2-ylmethyl)pyrazolo[4,3-b]pyridin-7-amine]
IC50 (PDE1A): 2.1 nM | IC50 (PDE1C; [1]): 8.1 nM

CCOc1ncccc1-c1cc(NCc2cc[nH]n2)c2c(cnn2C(C)CC)n1 (single isomer, unassigned) [Example 137, 5-(2-ethoxy-3-pyridyl)-1-[1-methylpropyl]-N-(1H-pyrazol-3-ylmethyl)pyrazolo[4,3-b]pyridin-7-amine]
IC50 (PDE1A): 180 nM | IC50 (PDE1C): 340 nM

CCOc1ncccc1-c1cc(NCc2noc(C)n2)c2c(cnn2C(C)C)n1 [Example 43, 5-(2-ethoxy-3-pyridyl)-1-isopropyl-N-[(5-methyl-1,2,4-oxadiazol-3-yl)methyl]pyrazolo[4,3-b]pyridin-7-amine]
IC50 (PDE1A): 30 nM | IC50 (PDE1C; [1]): 80 nM

CCOc1ncccc1-c1cc(NCc2nccc(C)n2)c2c(n1)c(C)nn2C(C)C [Example 75, 5-(2-ethoxy-3-pyridyl)-1-isopropyl-3-methyl-N-[(4-methylpyrimidin-2-yl)methyl]pyrazolo[4,3-b]pyridin-7-amine]
IC50 (PDE1A): 9.9 nM | IC50 (PDE1C; [1]): 33 nM

CCOc1ncccc1-c1cc(NCc2cc(C)no2)c2c(n1)c(C)nn2C(C)C [Example 10, 5-(2-ethoxy-3-pyridyl)-1-isopropyl-3-methyl-N-[(3-methylisoxazol-5-yl)methyl]pyrazolo[4,3-b]pyridin-7-amine]
IC50 (PDE1A): 4.1 nM | IC50 (PDE1C; [1]): 14 nM

CCOc1ncccc1-c1cc(NCc2cnn(C)c2)c2c(n1)c(C)nn2C(C)C [Example 9, 5-(2-ethoxypyridin-3-yl)-1-isopropyl-3-methyl-N-((1-methyl-1H-pyrazol-4-yl)methyl)-1H-pyrazolo[4,3-b]pyridin-7-amine]
IC50 (PDE1A): 2.6 nM | IC50 (PDE1C; [1]): 17 nM

CCOc1ncccc1-c1cc(NCc2cc(C)no2)c2c(cnn2C(C)C)n1 [Example 42, 5-(2-ethoxy-3-pyridyl)-1-isopropyl-N-[(3-methylisoxazol-5-yl)methyl]pyrazolo[4,3-b]pyridin-7-amine]
IC50 (PDE1A): 82 nM | IC50 (PDE1C; [1]): 180 nM

CCOc1ncccc1-c1cc(NCc2nnn(C)n2)c2c(n1)c(C)nn2C(C)C [Example 8, 5-(2-ethoxy-3-pyridyl)-1-isopropyl-3-methyl-N-[(2-methyltetrazol-5-yl)methyl]pyrazolo[4,3-b]pyridin-7-amine]
IC50 (PDE1A): 2.9 nM | IC50 (PDE1C; [1]): 8.9 nM

CCCn1cc(CNc2cc(-c3cccnc3OCC)nc3c(C)nn(C(C)C)c23)cn1 [Example 110, 5-(2-ethoxy-3-pyridyl)-1-isopropyl-3-methyl-N-[(1-propylpyrazol-4-yl)methyl]pyrazolo[4,3-b]pyridin-7-amine]
IC50 (PDE1A): 11 nM | IC50 (PDE1C; [1]): 8.5 nM

CCC1COC(=O)N1c1cc(NCc2cnn(C)c2)c2c(n1)c(C)nn2C(C)C (stereo not shown) [Example 156, 4-ethyl-3-[1-isopropyl-3-methyl-7-[(1-methylpyrazol-4-yl)methylamino]pyrazolo[4,3-b]pyridin-5-yl]oxazolidin-2-one]
IC50 (PDE1C; [1]): 5.1 nM

CCOc1ncccc1-c1cc(NCc2ccncn2)c2c(n1)c(C)nn2C(C)C [Example 73, 5-(2-ethoxy-3-pyridyl)-1-isopropyl-3-methyl-N-(pyrimidin-4-ylmethyl)pyrazolo[4,3-b]pyridin-7-amine]
IC50 (PDE1A): 81 nM | IC50 (PDE1C; [1]): 140 nM

CCOc1ncccc1-c1cc(NCc2nnco2)c2c(n1)c(C)nn2C(C)C [Example 59, 5-(2-ethoxy-3-pyridyl)-1-isopropyl-3-methyl-N-(1,3,4-oxadiazol-2-ylmethyl)pyrazolo[4,3-b]pyridin-7-amine]
IC50 (PDE1A): 55 nM | IC50 (PDE1C; [1]): 120 nM
